{"source": "patent US20150289512A1", "about": "“METHOD FOR PROMOTING PLANT GROWTH” (SUMITOMO CHEMICAL COMPANY, LIMITED, priority 2012, published 2015)", "format_in_all_cases": "in vivo", "key": {"[1]": {"test_system": "Rice (variety: Nipponbare)", "assay": "Test Example 1: promotion of root growth by hydroponics of rice, 10 ppm", "conditions": "hydroponic solution containing the test compound at 10 ppm, average of 4 or 5 individuals", "in_short": "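Surface-sterilised seeds germinated 3 days in the dark at 28° C in hydroponic solution with compound at 10 ppm, then grown 3 days hydroponically with compound at 10 ppm (26° C, 4,000 lux, 16 h day, 50% humidity). Seminal root length measured by image analysis, averaged over 4 or 5 plants per plot.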"}, "[2]": {"test_system": "Corn seeds (variety: Pioneer 120 31P41)", "assay": "Test Example 14: growth promotion under low-temperature stress by soil drench treatment of corn", "conditions": "soil drench 20 ml, low-temperature stress 5 days at 2.5° C., health score 0-5, average of 4 individuals", "protocol": "Test for Evaluating Growth Promotion Under Low-Temperature Stress by Soil Drench Treatment of Corn\nCorn seeds (variety: Pioneer 120 31P41) were seeded in a culture soil (Aisai) in a plastic pot (φ55 mm×height of 58 mm), and cultivated for 7 days at 20-25° C., an illuminance of about 5,000 lux, and a day length of 16 hours.\nA DMSO solution, which contained one of the compounds 1 to 9, 16, 17, 20, 23, 24, 28 to 32, 34, 45, 48, 50, 82 and 85 of the present invention at a concentration of 1,000-fold concentration of each test concentration, was prepared, and then diluted with distilled water to obtain each test solution. After that, 20 ml of the obtained test solution was used to perform soil drench treatment on the foot of the test plants. The test plants were cultivated for 2 days under the conditions of a temperature of 27° C., a humidity of 40-80%, an illuminance of about 5,000 lux, and a day length of 16 hours. This was used as a test plot treated with the compound. A plot having undergone the soil drench treatment with 20 ml of a 0.1% DMSO aqueous solution instead of the above DMSO solution containing the compound was used as an untreated control plot.\nThe plants having undergone the soil drench treatment were cultivated for 5 days under the conditions of a temperature of 2.5° C., a humidity of 40-80%, an illuminance of about 5,000 lux, and a day length of 16 hours, thereby exposing to low-temperature stress. After the exposure to the low-temperature stress, the plants were cultivated for 4 days under the conditions of a temperature of 27° C., a humidity of 40-80%, an illuminance of about 5,000 lux, and a day length of 16 hours.\nAfter the cultivation, the health of each plant was scored according to the following evaluation index.\n5: 4 or more leaves in which ⅔ or more of the area was healthy\n4: 3 leaves in which ⅔ or more of the area was healthy\n3: 2 leaves in which ⅔ or more of the area was healthy\n2: 1 leaf in which ⅔ or more of the area was healthy\n1: No leaf in which ⅔ or more of the area was healthy\nAn average of the scores of the health of 4 individuals was determined."}, "Nicotiana benthamiana [3]": {"test_system": "Nicotiana benthamiana", "assay": "Test Example 5: growth promotion under low-temperature stress by hydroponics of Nicotiana benthamiana, 1 ppm", "conditions": "1 ppm in medium, low-temperature stress 7 days at 1.5±1.0° C., green leaf area 3 days later, equation (1)", "protocol": "(§1) Test for Evaluating Growth Promotion Under Low-Temperature Stress by Hydroponics of Nicotiana benthamiana\nA DMSO solution, which contained one of the compounds 2, 4, 5, 6, 11, 12, 17, 20, 21, 28, 30, 34, 36, 37, 51, 52, 53, 55, 56, 58, 59, 60, 64, 65, 66, 68, 69, 70, 74, 77, 82, 83, 84, 86 and 87 of the present invention at a concentration of 1,000 ppm, was prepared. The DMSO solution of the compound of the present invention was added at a volume ratio of 1/1,000 to the Murashige•Scoog medium of a ½-fold concentration (a medium containing 2.3 g of mixed salts for the Murashige•Scoog medium (manufactured by Wako Pure Chemical Industries, Ltd.), 200 mg of Myo-inositol (manufactured by Sigma-Aldrich Co. LLC.), 2 mg of nicotinic acid (manufactured by Wako Pure Chemical Industries, Ltd.), 2 mg of pyridoxine hydrochloride (manufactured by Wako Pure Chemical Industries, Ltd.), 20 mg of thiamine hydrochloride (manufactured by Wako Pure Chemical Industries, Ltd.), 20 g of sucrose (manufactured by Wako Pure Chemical Industries, Ltd.), and 1 g of MES (manufactured by DOJINDO LABORATORIES) per 1 L of water and having pH adjusted to 5.8), thereby preparing a medium containing the compound of the present invention at a concentration of 1 ppm.\n(§2) Seeds of Nicotiana benthamiana were seeded in the 5 μL of the medium and cultured overnight at 22° C. Thereafter, 45 μL of the medium containing the compound of the present invention at a concentration of 1 ppm was added thereto, and the seeds are cultured for 7 days at 22° C., an illuminance of 4,000 lux, and a day length of 16 hours, and the nursery plants raised from the Nicotiana benthamiana were treated with the compound. Moreover, instead of the above medium, a test plot, which was obtained by performing the same treatment by using a medium prepared by adding DMSO to the Murashige•Scoog medium of ½-fold concentration at a volume ratio of 1/1,000, was used as a control plot not treated with the compound.\n(§3) The nursery plants of the Nicotiana benthamiana treated with the compound were subjected to low-temperature treatment by being cultivated for 7 days at 1.5±1.0° C., an illuminance of 2,000 lux, and a day length of 16 hours.\nThe nursery plants of the Nicotiana benthamiana having undergone the low-temperature stress treatment were cultured for 3 days at 22° C., an illuminance of 4,000 lux, and a day length of 16 hours. Thereafter, the area of green leaf was quantified by Scanalyzer HTS (manufactured by LemnaTec GmbH). Moreover, the value of the control plot not treated with the compound that had not yet been subjected to the low-temperature stress treatment was measured in the same manner. A value of a relative leaf area was calculated based on the following equation (1), and if the value of a relative leaf area was 5 or greater, the compound was evaluated to have a mitigating effect. As a result of the evaluation, it was confirmed that when the plant was treated with one of the compounds 2, 4, 5, 6, 11, 12, 17, 20, 21, 28, 30, 34, 36, 37, 51, 52, 53, 55, 56, 58, 59, 60, 64, 65, 66, 68, 69, 70, 74, 77, 82, 83, 84, 86 and 87 of the present invention at 1 ppm, the value of a relative leaf area was 5 or greater, compared to the area of green leaf of the control plot not treated with compound. Accordingly, it was confirmed that the treatment using the compound of the present invention brings about a growth promotion effect.\n(§4) Relative leaf area=100*(a green area of a plot treated with the compound of the present invention−a green area of a control plot not treated with the compound of the present invention)/(a green area of a control plot not treated with the compound of the present invention that has not yet been subjected to low-temperature stress treatment−a green area of a control plot not treated with the compound of the present invention) Equation (1): […]"}, "Nicotiana benthamiana [4]": {"test_system": "Nicotiana benthamiana", "assay": "Test Example 6: growth promotion under low-temperature stress by hydroponics of Nicotiana benthamiana, 0.1 ppm", "conditions": "0.1 ppm in medium, low-temperature stress 7 days at 1.5±1.0° C., green leaf area 3 days later, equation (1)", "protocol": "as §1\nA DMSO solution, which contained one of the compounds 3, 7, 14, 16, 36, 39, 43, 45, 50, 52, 53, 54, 56, 57, 62, 63, 64, 65, 68, 69, 70, 71, 73, 74, 76, 77, 79, 80, 81, 84, 85, 86 and 87 of the present invention at a concentration of 100 ppm, was prepared. The DMSO solution of the compound of the present invention was added at a volume ratio of 1/1,000 to the Murashige•Scoog medium of a ½-fold concentration for the Murashige•Scoog medium (a medium containing 2.3 g of mixed salts (manufactured by Wako Pure Chemical Industries, Ltd.), 200 mg of Myo-inositol (manufactured by Sigma-Aldrich Co. LLC.), 2 mg of nicotinic acid (manufactured by Wako Pure Chemical Industries, Ltd.), 2 mg of pyridoxine hydrochloride (manufactured by Wako Pure Chemical Industries, Ltd.), 20 mg of thiamine hydrochloride (manufactured by Wako Pure Chemical Industries, Ltd.), 20 g of sucrose (manufactured by Wako Pure Chemical Industries, Ltd.), and 1 g of MES (manufactured by DOJINDO LABORATORIES) per 1 L of water and having pH adjusted to 5.8), thereby preparing a medium containing the compound of the present invention at a concentration of 0.1 ppm.\nas §2, with “concentration of 0.1 ppm was” for “concentration of 1 ppm was”, “seeds are cultivated for 7” for “seeds are cultured for 7”, “the above medium a test” for “the above medium, a test”\nas §3\nThe nursery plants of the Nicotiana benthamiana having undergone the low-temperature stress treatment were cultivated for 3 days at 22° C., an illuminance of 4,000 lux, and a day length of 16 hours. Thereafter, the area of green leaf was quantified by Scanalyzer HTS (manufactured by LemnaTec GmbH). Moreover, the value of the control plot not treated with the compound that had not yet been subjected to the low-temperature stress treatment was measured in the same manner. A value of a relative leaf area was calculated based on the following equation (1), and if the value of a relative leaf area was 5 or greater, the compound was evaluated to have a mitigating effect. As a result of the evaluation, it was confirmed that when the plant was treated with one of the compounds 3, 7, 14, 16, 36, 39, 43, 45, 50, 52, 53, 54, 56, 57, 62, 63, 64, 65, 68, 69, 70, 71, 73, 74, 76, 77, 79, 80, 81, 84, 85, 86 and 87 of the present invention at 0.1 ppm, the value of a relative leaf area was 5 or greater, compared to the area of green leaf of the control plot not treated with compound. Accordingly, it was confirmed that the treatment using the compound of the present invention brings about a growth promotion effect.\nas §4, with “treatment−green” for “treatment−a green”"}}, "data": [{"smiles": "COC(=O)c1nc2ccccc2n1C", "note": "[Compound 23]", "values": [{"measurement": "Relative value of length of seminal root (%-untreated control plot)", "setting": "[1]", "value": ">5", "unit": "%"}, {"measurement": "Relative value of score (%- untreated control plot)", "setting": "[2]; concentration tested 10 ppm", "value": ">5", "unit": "%"}]}, {"smiles": "CCOC(=O)c1nc2ccccc2s1", "note": "[Compound 31]", "values": [{"measurement": "Relative value of score (%- untreated control plot)", "setting": "[2]; concentration tested 0.3 ppm", "value": ">5", "unit": "%"}]}, {"smiles": "COC(=O)c1nc2c(F)cc(F)cc2s1", "note": "[Compound 87]", "values": [{"measurement": "relative leaf area (% of untreated control) at 1 ppm", "setting": "Nicotiana benthamiana [3]", "value": "≥ 5", "unit": "%"}, {"measurement": "relative leaf area (% of untreated control) at 0.1 ppm", "setting": "Nicotiana benthamiana [4]", "value": "≥ 5", "unit": "%"}]}, {"smiles": "CCOC(=O)c1cc2cc(C(F)(F)F)ccc2[nH]1", "note": "[Compound 9]", "values": [{"measurement": "Relative value of length of seminal root (%-untreated control plot)", "setting": "[1]", "value": ">5", "unit": "%"}, {"measurement": "Relative value of score (%- untreated control plot)", "setting": "[2]; concentration tested 3 ppm", "value": ">5", "unit": "%"}]}, {"smiles": "COC(=O)c1nc2cc(C(F)(F)F)ccc2n1C", "note": "[Compound 24, methyl 1-methyl-5-trifluoromethylbenzimidazole-2-carboxylate]", "values": [{"measurement": "change in vivo at 10 ppm", "setting": "[2]; Zea mays, 120 h, concentration tested 10 ppm, read-out: Relative value of score (%- untreated control plot)", "value": "> 5", "unit": "%"}]}, {"smiles": "CCOC(=O)c1oc2ccccc2c1C(F)(F)F", "note": "[Compound 84]", "values": [{"measurement": "change in vivo at 10 ppm", "setting": "[1]; Oryza sativa, read-out: Relative value of length of seminal root (%-untreated control plot)", "value": "> 5", "unit": "%"}, {"measurement": "relative leaf area (% of untreated control) at 1 ppm", "setting": "Nicotiana benthamiana [3]", "value": "≥ 5", "unit": "%"}, {"measurement": "relative leaf area (% of untreated control) at 0.1 ppm", "setting": "Nicotiana benthamiana [4]", "value": "≥ 5", "unit": "%"}]}, {"smiles": "O=C(O)c1nc2ccccc2s1", "note": "[Compound 32]", "values": [{"measurement": "Relative value of length of seminal root (%-untreated control plot)", "setting": "[1]", "value": ">5", "unit": "%"}, {"measurement": "Relative value of score (%- untreated control plot)", "setting": "[2]; concentration tested 0.3 ppm", "value": ">5", "unit": "%"}]}]}
